PubChem BioAssay (NCI)
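Where inhibition never reached the appropriate level, the endpoint shown equals the highest concentration tested. Otherwise, values were interpolated linearly from a five-concentration, 48-hour dose response in 96-well plates. The concentration for full growth arrest is given as TGI.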

Experiments:
Assay in all cases: DTP human tumour cell line panel, 48 h
[1] = test system: SR leukemia
[2] = test system: HCT-116 colon
[3] = test system: CCRF-CEM leukemia
[4] = test system: DU-145 prostate
[5] = test system: HS 578T breast
[6] = test system: UO-31 renal
[7] = test system: OVCAR-5 ovarian
[8] = test system: UACC-62 melanoma
[9] = test system: OVCAR-4 ovarian
[10] = test system: COLO 205 colon
[11] = test system: SW-620 colon
[12] = test system: MOLT-4 leukemia
[13] = test system: OVCAR-3 ovarian
[14] = test system: RXF 393 renal
[15] = test system: RPMI-8226 leukemia
[16] = test system: HT29 colon

In the case of `O=C(Cn1c2ccc(Br)cc2c2nc3ccccc3nc21)NNC(=O)NC1CCCCC1`, the TGI [1] is reported as over 100 µM, the TGI [2] is reported as over 100 µM and the TGI [3] is reported as 76.1 µM. For the same compound, the TGI [4] was 86 µM, the TGI [5] was over 100 µM and the TGI [6] was 8.09 µM. It also gave a TGI [7] of over 100 µM, a TGI [8] of over 100 µM and a TGI [9] of 42.9 µM. For the same compound, the TGI [10] was over 100 µM, the TGI [11] was over 100 µM and the TGI [12] was 67.1 µM. For the same compound, the TGI [13] was over 100 µM, the TGI [14] was over 100 µM and the TGI [15] was over 100 µM.
With `CC(/C=C/c1ccccc1)=N\NC(=S)N/N=C(C)/C=C/c1ccccc1` the TGI [1] was over 100 µM, the TGI [2] was over 100 µM and the TGI [3] was over 100 µM. For the same compound, the TGI [4] was over 100 µM, the TGI [5] was over 100 µM and the TGI [6] was over 100 µM. It also gave a TGI [7] of over 100 µM, a TGI [8] of over 100 µM and a TGI [9] of 28.5 µM. For the same compound, the TGI [10] was over 100 µM, the TGI [11] was over 100 µM and the TGI [12] was over 100 µM. It also gave a TGI [13] of 66.5 µM, a TGI [14] of 40.7 µM and a TGI [16] of over 100 µM.
With `O=C(O)CCC1C(=O)C2CCN1CC2` (centres undefined) the TGI [1] was over 100 µM, the TGI [2] was over 100 µM and the TGI [3] was over 100 µM. For the same compound, the TGI [4] was over 100 µM, the TGI [5] was over 100 µM and the TGI [6] was over 100 µM. It also gave a TGI [7] of over 100 µM, a TGI [8] of over 100 µM and a TGI [9] of over 100 µM. The TGI [10] was over 100 µM, the TGI [11] was over 100 µM and the TGI [12] was over 100 µM. For the same compound, the TGI [13] was over 100 µM, the TGI [14] was over 100 µM and the TGI [15] was over 100 µM. The TGI [16] was over 100 µM.
In the case of `Cc1ccc(S(=O)(=O)NC(=O)NC(CCCCN)C(=O)O)cc1` (centres undefined), the TGI [1] is reported as over 100 µM, the TGI [2] is reported as over 100 µM and the TGI [3] is reported as over 100 µM. The TGI [4] was over 100 µM, the TGI [5] was over 100 µM and the TGI [6] was over 100 µM. It also gave a TGI [8] of over 100 µM, a TGI [9] of over 100 µM and a TGI [10] of over 100 µM. For the same compound, the TGI [11] was over 100 µM, the TGI [12] was over 100 µM and the TGI [14] was over 100 µM. The TGI [15] was over 100 µM.
In the case of `C#CC(O)/C=C/C(O)CCCC(O)CC#CC(O)C#CCCCCC(O)/C=C/CCCCCC(=O)CCCCCCCCCCCCCC(O)C(O)C#CC(=O)O` (centres undefined), the TGI [1] is reported as 19.1 µM, the TGI [2] is reported as over 25 µM and the TGI [3] is reported as over 25 µM. For the same compound, the TGI [4] was over 25 µM, the TGI [5] was over 25 µM and the TGI [6] was over 25 µM. For the same compound, the TGI [7] was over 25 µM, the TGI [8] was over 25 µM and the TGI [9] was over 25 µM. It also gave a TGI [10] of over 25 µM, a TGI [12] of over 25 µM and a TGI [15] of over 25 µM. The TGI [16] was over 25 µM.
`COc1ccc(/C=C/c2cc(O)cc(OC3OC(CO)C(O)C(O)C3O)c2)cc1O` (centres undefined) showed a TGI [1] of over 100 µM, a TGI [2] of over 100 µM and a TGI [3] of over 100 µM. The TGI [4] was over 100 µM, the TGI [5] was over 100 µM and the TGI [6] was over 100 µM. It also gave a TGI [7] of over 100 µM, a TGI [8] of over 100 µM and a TGI [9] of over 100 µM. It also gave a TGI [10] of over 100 µM, a TGI [11] of over 100 µM and a TGI [12] of over 100 µM. It also gave a TGI [13] of over 100 µM, a TGI [14] of over 100 µM and a TGI [15] of over 100 µM. The TGI [16] was over 100 µM.
Work on `CC(=O)n1nc(-c2[nH]c(C)c(-c3nn(C(C)=O)c(=S)o3)c2C)oc1=S` yielded a TGI [1] of over 100 µM, a TGI [2] of over 100 µM and a TGI [3] of over 71.4 µM. For the same compound, the TGI [4] was over 100 µM, the TGI [5] was over 100 µM and the TGI [6] was over 100 µM. For the same compound, the TGI [7] was over 100 µM, the TGI [8] was over 100 µM and the TGI [9] was over 100 µM. It also gave a TGI [10] of over 100 µM, a TGI [11] of over 100 µM and a TGI [12] of over 100 µM. It also gave a TGI [13] of over 100 µM, a TGI [14] of over 100 µM and a TGI [15] of over 100 µM. For the same compound, the TGI [16] was over 100 µM.
